Test results from ChEMBL document CHEMBL5365446, “Discovery, Structure-Activity Relationships, and In Vivo Activity of Dihydropyridone Agonists of the Bile Acid Receptor TGR5” (J Med Chem, 2023).
Values after ≈ are worked out from the molar mass of the structure shown.

Key:
[1] = target: T1, G-protein coupled bile acid receptor 1 (Homo sapiens, UniProt Q8TDU6); test: Agonist activity at human TGR5 receptor expressed in HEK293 cells cotransfected with pCMV tag4b-TGR5 assessed as activation of intracellular cAMP production incubated overnight by luciferase reporter gene assay; assay type: functional, cell-based
T1 sequence (Q8TDU6 whole entry): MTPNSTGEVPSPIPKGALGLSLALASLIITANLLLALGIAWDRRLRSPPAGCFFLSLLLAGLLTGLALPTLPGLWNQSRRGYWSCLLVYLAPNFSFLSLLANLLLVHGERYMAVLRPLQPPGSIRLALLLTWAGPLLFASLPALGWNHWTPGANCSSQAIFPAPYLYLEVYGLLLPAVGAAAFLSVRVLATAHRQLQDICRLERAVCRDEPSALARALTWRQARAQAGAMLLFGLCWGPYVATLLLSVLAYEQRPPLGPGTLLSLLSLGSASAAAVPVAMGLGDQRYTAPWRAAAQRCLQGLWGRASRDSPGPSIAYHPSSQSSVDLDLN

[2] = target: T2, G-protein coupled bile acid receptor 1 (Mus musculus, UniProt Q80SS6); test: Agonist activity at mouse TGR5 receptor expressed in HEK293 cells cotransfected with pCMV AC6-TGR5 assessed as activation of intracellular cAMP production incubated overnight by luciferase reporter gene assay; assay type: functional, cell-based
T2 sequence (Q80SS6 whole entry): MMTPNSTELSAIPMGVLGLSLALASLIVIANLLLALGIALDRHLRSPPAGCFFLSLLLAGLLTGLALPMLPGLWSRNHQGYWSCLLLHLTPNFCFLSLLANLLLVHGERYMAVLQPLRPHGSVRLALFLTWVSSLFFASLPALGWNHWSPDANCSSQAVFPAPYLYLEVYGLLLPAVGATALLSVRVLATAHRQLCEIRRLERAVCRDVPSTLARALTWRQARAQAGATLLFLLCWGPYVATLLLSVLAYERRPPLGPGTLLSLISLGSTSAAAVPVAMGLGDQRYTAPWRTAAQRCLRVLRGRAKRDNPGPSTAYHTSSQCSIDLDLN

[3] = Apparent permeability across apical to basolateral side in human Caco-2 cells measured after 1 hr by LC-MS/MS analysis
physchem [4] = details: buffer, pH 7.4
[5] = Apparent permeability across basolateral to apical side in human Caco-2 cells measured after 1 hr by LC-MS/MS analysis
physchem [6] = details: buffer, pH 7.4; remark: listed apart in the source
in vitro [7] = details: CD-1, mouse, liver microsomes
in vitro [8] = details: CD-1, mouse, liver microsomes; remark: listed apart in the source
in vitro [9] = details: CD-1, mouse, plasma

Row | SMILES | EC50 ([1]; read-out: EC50) [µM] | EC50 ([2]; read-out: EC50) [µM] | further results
1 | CC1=C(C(=O)OCc2ccccc2)C(c2ccc(C(F)(F)F)cc2)CC(=O)N1 (stereo not given) | 1.2 |  | 
2 | CC1=C(C(=O)OCc2ccccc2)C(c2ccccc2OC(C)C)CC(=O)N1 (stereo not given) |  | 2.3 | 
3 | COc1ccccc1COC(=O)C1=C(C)N(C[C@H]2CCCO2)C(=O)C[C@@H]1c1ccc(Cl)nc1 | 0.223 |  | 
4 | COc1ccccc1COC(=O)C1=C(C)N(Cc2ccco2)C(=O)CC1c1ccc(Cl)cc1 (stereo not given) | 0.26 | 0.16 | 
5 | COc1ccccc1COC(=O)C1=C(C)N(C[C@@H]2CCCO2)C(=O)C[C@H]1c1ccc(Cl)nc1 | 0.035 |  | 
6 | COCCN1C(=O)CC(c2ccc(Cl)cc2)C(C(=O)OCc2ccccc2OC(F)(F)F)=C1C (stereo not given) |  | 1.2 | EC50 ([2]; read-out: pEC50 (converted)): 10 µM
7 | COCCN1C(=O)CC(c2ccc(Cl)cc2)C(C(=O)OCc2cccc(C)c2)=C1C (stereo not given) |  |  | EC50 ([2]; read-out: pEC50 (converted)): 0.316 µM
8 | COCCN1C(=O)CC(c2ccc(Cl)cc2)C(C(=O)OCc2cccc(OC)c2)=C1C (stereo not given) | 0.3 |  | 
9 | COCCCN1C(=O)CC(c2ccc(Cl)cc2)C(C(=O)OCc2ccccc2OC)=C1C (stereo not given) | 0.19 | 0.73 | 
10 | COCCN1C(=O)CC(c2ccc(Cl)cc2)C(C(=O)OCc2cccc(C(F)(F)F)c2)=C1C (stereo not given) | 0.4 | 0.8 | 
11 | COCCN1C(=O)CC(c2ccc(Cl)cc2)C(C(=O)OCc2ccccc2C(F)(F)F)=C1C (stereo not given) | 1.2 |  | EC50 ([2]; read-out: pEC50 (converted)): 1.26 µM
12 | COc1ccccc1COC(=O)C1=C(C)N(C[C@H]2CCCO2)C(=O)C[C@H]1c1ccc(Cl)cc1 | 0.014 |  | Papp A→B at 1 h [3]: 0.2 ×10⁻⁶ cm/s; EC50 ([1]; read-out: pEC50 (converted)): 0.0158 µM; solubility thermodynamic at 24 h (physchem [4]): 2.6 µM (≈ 1.22 µg/mL); Papp B→A at 1 h [5]: 0.4 ×10⁻⁶ cm/s; logD at 24 h (physchem [6]): 3.2
13 | COCCN1C(=O)CC(c2ccc(Cl)cc2)C(C(=O)OCc2ccc(OC)cc2)=C1C (stereo not given) |  | 0.3 | 
14 | COCCN1C(=O)CC(c2ccc(Cl)cc2)C(C(=O)OCc2cccc(C(=O)OC)c2)=C1C (stereo not given) | 0.8 | 0.8 | 
15 | COCCN1C(=O)CC(c2ccc(Cl)cc2)C(C(=O)OCc2ccc(C(=O)OC)cc2)=C1C (stereo not given) | 0.3 |  | 
16 | COC(=O)C1=C(C)N(C)C(=O)CC1c1ccc(Cl)cc1 (stereo not given) |  | 15 | 

Row | SMILES | EC50 ([1]; read-out: EC50) [µM] | EC50 ([2]; read-out: EC50) [µM] | further results
17 | COCCN1C(=O)CC(c2ccc(Cl)cc2)C(C(=O)OCc2ccc(C(F)(F)F)cc2)=C1C (stereo not given) |  | 0.4 | 
18 | COc1ccccc1COC(=O)C1=C(C)N(C[C@@H]2CCCO2)C(=O)C[C@@H]1c1ccc(Cl)nc1 | 0.429 |  | 
19 | O=C1CC(c2ccc(Cl)cc2)C(C(=O)OCc2ccccc2)=CN1 (stereo not given) |  | 8.6 | 
20 | COc1ccccc1COC(=O)C1=C(C)N(C[C@H]2CCCO2)C(=O)C[C@H]1c1ccc(Cl)nc1 | 0.002 |  | Papp A→B at 1 h [3]: 22.5 ×10⁻⁶ cm/s; solubility thermodynamic at 24 h (physchem [4]): 38.2 µM (≈ 18 µg/mL); Papp B→A at 1 h [5]: 12.3 ×10⁻⁶ cm/s; half-life at 40 min, 1 µM (in vitro [7]): 24 s; logD at 24 h (physchem [6]): 3.7; microsomal CLint at 40 min, 1 µM (in vitro [8]): 1310 µL/min/mg; half-life at 10 µM (in vitro [9]): > 6 h
21 | CC1=C(C(=O)OCc2ccccc2)C(c2ccc(Cl)cc2)CC(=O)N1C (stereo not given) |  |  | EC50 ([1]; read-out: pEC50 (converted)): 0.631 µM
22 | CC1=C(C(=O)OCc2ccccc2)C(c2ccc(C)cc2)CC(=O)N1 (stereo not given) | 6.3 |  | 
23 | COC(=O)CN1C(=O)CC(c2ccc(Cl)cc2)C(C(=O)OCc2ccccc2OC)=C1C (stereo not given) |  | 0.05 | 
24 | COCCN1C(=O)CC(c2ccc(Cl)cc2)C(C(=O)OCC2CCCCC2)=C1C (stereo not given) | 0.7 | 1.2 | 
25 | COCCN1C(=O)CC(c2ccc(Cl)cc2)C(C(=O)OCc2c(C)cc(C)cc2C)=C1C (stereo not given) |  | 0.3 | 
26 | CC1=C(C(=O)OCc2ccccc2)C(c2ccc(Cl)cc2F)CC(=O)N1 (stereo not given) | 2 |  | 
27 | COc1ccccc1COC(=O)C1=C(C)N(C[C@H]2CCCO2)C(=O)C[C@H]1c1ccc(Cl)cc1 (racemic) | 0.03 |  | EC50 ([1]; read-out: pEC50 (converted)): 0.0251 µM
28 | COc1ccccc1COC(=O)C1=C(C)N(C[C@@H]2CCCO2)C(=O)C[C@H]1c1ccc(Cl)cc1 (racemic) | 0.11 |  | 
29 | COc1ccccc1COC(=O)C1=C(C)N(CC2CCCO2)C(=O)CC1c1ccc(Cl)nc1 (racemic; 77) | 0.002 |  | EC50 ([1]; read-out: pEC50 (converted)): 0.0316 µM
30 | COc1ccccc1COC(=O)C1=C(C)N(CC2CCCO2)C(=O)CC1c1ccc(Cl)nc1 (racemic; 78) | 0.088 |  | 
31 | COCCN1C(=O)CC(c2ccc(Cl)cc2)C(C(=O)OCc2ccccc2OC)=C1C (single isomer, unassigned) | 0.075 | 0.12 | 
32 | COCCN1C(=O)CC(c2ccc(Cl)cc2)C(C(=O)OCc2ccccc2OC)=C1C (single isomer, unassigned; enantiomer 1) | 0.12 |  | 

Second part, led by results:

Row | EC50 ([1]; read-out: EC50) [µM] | EC50 ([2]; read-out: EC50) [µM] | SMILES | further results
33 | 0.5 | 0.9 | COCCN1C(=O)CC(c2ccc(Cl)cc2)C(C(=O)OCc2ccccc2)=C1C (stereo not given) | 
34 | 0.7 | 1 | C#CCN1C(=O)CC(c2ccc(Cl)cc2)C(C(=O)OCc2ccccc2)=C1C (stereo not given) | 
35 | 0.3 |  | COCCN1C(=O)CC(c2ccc(Cl)cc2)C(C(=O)OCc2ccc(C)cc2)=C1C (stereo not given) | 
36 |  | 0.9 | CCN1C(=O)CC(c2ccc(Cl)cc2)C(C(=O)OCc2ccccc2)=C1C (stereo not given) | 
37 | 0.3 | 0.5 | COCCN1C(=O)CC(c2ccc(Cl)cc2)C(C(=O)OCc2ccc(F)cc2)=C1C (stereo not given) | 
38 | 1 | 0.7 | COCCN1C(=O)CC(c2ccc(Cl)cc2)C(C(=O)OCc2ccncc2)=C1C (stereo not given) | 
39 |  | 0.6 | COCCN1C(=O)CC(c2ccc(Cl)cc2)C(C(=O)OCc2cccc(Cl)c2)=C1C (stereo not given) | 
40 | 0.8 | 0.9 | CC1=C(C(=O)OCc2ccccc2)C(c2ccc(Cl)cc2)CC(=O)N1Cc1ccccc1 (stereo not given) | 
41 |  | 0.8 | COCCN1C(=O)CC(c2ccc(Cl)cc2)C(C(=O)OCc2cccc(F)c2)=C1C (stereo not given) | 
42 | 0.3 | 1 | COCCN1C(=O)CC(c2ccc(Cl)cc2)C(C(=O)OCc2ccccc2Cl)=C1C (stereo not given) | 
43 |  | 0.4 | COCCN1C(=O)CC(c2ccc(Cl)cc2)C(C(=O)OCc2ccc(Cl)cc2)=C1C (stereo not given) | 
44 | 0.8 |  | COCCN1C(=O)CC(c2ccc(Cl)cc2)C(C(=O)OCCCc2ccccc2)=C1C (stereo not given) | 
45 | 13 |  | COCCN1C(=O)CC(c2ccc(Cl)cc2)C(C(=O)NCc2ccccc2)=C1C (stereo not given) | 
46 |  | 0.77 | COc1ccccc1COC(=O)C1=C(C)N(CCO)C(=O)CC1c1ccc(Cl)cc1 (stereo not given) | 
47 |  | 0.3 | CC1=C(C(=O)OCc2ccccc2)C(c2ccc(Cl)cc2)CC(=O)N1CC1CCC1 (stereo not given) | EC50 ([1]; read-out: pEC50 (converted)): 0.316 µM
48 |  | 4.7 | CC1=C(C(=O)OCc2ccccc2)C(c2ccc(Cl)cc2)CC(=O)N1CCN(C)C (stereo not given) | 
49 | 0.3 | 0.6 | COCCN1C(=O)CC(c2ccc(Cl)cc2)C(C(=O)OCc2ccccc2F)=C1C (stereo not given) | 
50 | 0.8 | 1.1 | C=C(C)CN1C(=O)CC(c2ccc(Cl)cc2)C(C(=O)OCc2ccccc2)=C1C (stereo not given) | 
51 | 0.8 |  | C=CCN1C(=O)CC(c2ccc(Cl)cc2)C(C(=O)OCc2ccccc2)=C1C (stereo not given) | EC50 ([2]; read-out: pEC50 (converted)): 1.58 µM
52 | 0.5 | 0.9 | CCCCN1C(=O)CC(c2ccc(Cl)cc2)C(C(=O)OCc2ccccc2)=C1C (stereo not given) | 
